Consider 25 compounds from patent US20200361871A1 (Enterprise Therapeutics Ltd., priority 2018, published 2020).

What is called EC50 is the midpoint of the concentration-response curve.

The target of the assay is human TMEM16A (TMEM16Aabc variant) (Homo sapiens, UniProt Q5XXA6, DEL476-501, form not given). Kind of assay: Automated whole-cell patch clamp (Qpatch) TMEM16A potentiator assay in FRT cells stably expressing human TMEM16A. In kind it is cell-based. To be noted: for % Potentiation @ 3.33 μM Avg: 3.33 μM solution of test compound, percentage increase of baseline TMEM16A current; for EC50: calculated EC50, Qpatch TMEM16A current at +70 mV. An excerpt: FIG. 1 is an example trace from a whole-cell patch clamp (Qpatch) TMEM16A potentiator assay as used in Biological Example 95 and illustrates the methodology used in the assay. In FIG. 1: S is Saline; V is Vehicle; #1 is Test Compound concentration #1; #2 is Test Compound concentration 2; #3 is Test Compound concentration 3; #4 is Test Compound concentration 4; #5 is Test Compound concentration #5; and R is Reference. The arrow in column V represents the baseline current, IBL. The arrows in each of the columns #1, #2, #3, #4, #5 and R represent I#[1], I#[2], I#[3], I#[4], I#[5] and I[Ref], which are the peak currents during the incubation periods for test compounds concentrations #1 to #5 and the Reference.
Chain of human TMEM16A (TMEM16Aabc variant) (Q5XXA6 with tags, fused parts or gaps DEL476-501): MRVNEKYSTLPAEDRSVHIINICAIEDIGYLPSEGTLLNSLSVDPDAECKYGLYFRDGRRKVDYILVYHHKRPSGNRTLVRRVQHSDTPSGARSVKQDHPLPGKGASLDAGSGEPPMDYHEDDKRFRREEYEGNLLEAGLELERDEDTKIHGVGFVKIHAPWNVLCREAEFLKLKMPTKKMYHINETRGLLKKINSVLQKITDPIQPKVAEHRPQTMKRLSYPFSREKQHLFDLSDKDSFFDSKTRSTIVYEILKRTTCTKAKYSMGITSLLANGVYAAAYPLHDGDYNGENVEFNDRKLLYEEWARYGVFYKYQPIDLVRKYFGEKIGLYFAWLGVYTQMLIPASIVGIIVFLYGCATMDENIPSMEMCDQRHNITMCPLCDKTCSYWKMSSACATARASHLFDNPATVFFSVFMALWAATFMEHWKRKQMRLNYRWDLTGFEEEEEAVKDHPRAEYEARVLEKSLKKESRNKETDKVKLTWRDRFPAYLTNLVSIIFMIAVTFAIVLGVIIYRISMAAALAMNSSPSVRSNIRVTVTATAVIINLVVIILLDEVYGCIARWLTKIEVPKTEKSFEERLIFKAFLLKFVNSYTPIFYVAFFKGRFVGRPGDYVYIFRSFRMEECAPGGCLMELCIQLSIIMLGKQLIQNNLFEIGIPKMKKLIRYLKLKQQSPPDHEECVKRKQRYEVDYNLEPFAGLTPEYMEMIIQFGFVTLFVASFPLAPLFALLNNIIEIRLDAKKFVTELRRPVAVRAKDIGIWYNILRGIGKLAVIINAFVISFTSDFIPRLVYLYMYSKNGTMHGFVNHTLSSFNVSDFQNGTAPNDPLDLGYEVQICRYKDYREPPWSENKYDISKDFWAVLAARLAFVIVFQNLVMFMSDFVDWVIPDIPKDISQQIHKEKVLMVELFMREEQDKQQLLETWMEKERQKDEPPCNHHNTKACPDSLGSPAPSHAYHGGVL
Fisher rat thyroid (FRT) cells stably expressing human TMEM16A (TMEM16Aabc variant; Dr Luis Galietta, Insituto Giannina, Italy) were cultured in T-75 flasks in Hams F-12 media with Coon's modification (Sigma) supplemented with 10% (v/v) foetal bovine serum, penicillin-streptomycin (10,000 U/mL/10000 μg/mL), G-418 (750 μg/mL), L-glutamine (2 mM) and sodium bicarbonate solution (7.5% v/v). At ˜90% confluence cells were harvested for experiments by detachment with a 2:1 (v/v) mixture of Detachin (BMS Biotechnology) and 0.25% (w/v) trypsin-EDTA. Cells were diluted to a density of 3.5-4.5×10^6 cells/mL with media consisting of CHO-S-SFM II (Sigma), 25 mM HEPES (Sigma) and Soy bean trypsin inhibitor (Sigma).
FRT-TMEM16A cells were whole-cell patch clamped using an automated planar patch clamp system (Qpatch, Sophion). Briefly, once high resistance (GOhm) seals were established between the cells and the planar recording array the patch was ruptured using suction pulses to establish the whole-cell recording configuration of the patch clamp technique. The assay employed the following solutions (all reagents Sigma): Intracellular solution (mM): N-methyl-D-glucamine 130, CaCl2 18.2, MgCl2 1, HEPES 10, EGTA 10, BAPTA 20, Mg-ATP 2, pH 7.25, 325 mOsm with sucrose.
Extracellular solution (mM): N-methyl-D-glucamine 130, CaCl2 2, MgCl2 1, HEPES 10, pH 7.3, 320 mOsm with sucrose.
The intracellular solution buffers intracellular calcium at levels required to give ˜20% activation of the maximal TMEM16A mediated current (EC20 for calcium ions). Cells were voltage clamped at a holding potential of −70 mV and a combined voltage step (to +70 mV)/ramp (−90 my to +90 mV) was applied at 0.05 Hz. After a period of current stabilisation test compounds, solubilised in 100% (v/v) DMSO and subsequently diluted into extracellular solution, were applied to generate a cumulative concentration response curve. Each concentration of test compound was incubated for 5 minutes before addition of the next concentration. After the final concentration was tested a supramaximal concentration of either a known active positive modulator or the TMEM16A inhibitor, CaCCinhA01 (Del La Fuente et al, 2008) was added to define the upper and lower limits of the assay.
Compound activity was quantified by measuring the increase in current upon compound addition and expressing this as a percentage increase of baseline TMEM16A current level. Percentage increases in current were determined for each concentration and the data plotted as a function of concentration using either the Qpatch software or Graphpad Prism v6.05 providing the concentration which gave 50% of its maximal effect (EC50) and maximum efficacy (percentage of baseline increase).
In FIG. 1, IBL equals baseline current, I[#1] equals the peak current during test compound concentration 1 incubation period and so on.
Peak TMEM16A current at +70 mV was plotted as a function of time over the assay period. Baseline current (IBL) was measured after a period of stabilisation. The increase in current for each compound addition was determined by taking the peak current during the incubation period and subtracting the current from the previous recording period and then expressing this as a percentage of the baseline current. […]

For the compound `CC1(NC(=O)c2cc(NC(=O)Cc3cc(Cl)ccc3O)ccn2)CCCCC1` [Example 1.7, 4-[[2-(5-Chloro-2-hydroxy-phenyl)acetyl]amino]-N-(1-methylcyclohexyl)pyridine-2-carboxamide], the “% Potentiation @ 3.33 μM Avg” value is recorded as 239% and the EC50 is 150 nM.
Consider `CC(C)(CCNC(=O)OC(C)(C)C)NC(=O)c1cc(NC(=O)Cc2cc(Cl)ccc2O)ccn1` [Example 1.8, tert-Butyl N-[3-[[4-[[2-(5-chloro-2-hydroxy-phenyl)acetyl]amino]pyridine-2-carbonyl]amino]-3-methyl-butyl]carbamate], for which the “% Potentiation @ 3.33 μM Avg” value was 300% and the EC50 was 410 nM.
For the compound `COCC(C)(C)NC(=O)c1cccc(NC(=O)Cc2ccccc2O)c1` [Example 1.9, 3-[[2-(2-Hydroxyphenyl)acetyl]amino]-N-(2-methoxy-1,1-dimethyl-ethyl)benzamide], the “% Potentiation @ 3.33 μM Avg” value was 79% and the half-maximal effective concentration (EC50) is 4200 nM.
Taken in the same sequence, the figures for `O=C(Cc1cc(Cl)ccc1O)Nc1ccnc(C(=O)NC2CCCCC2)c1` [Example 1.10, 4-[[2-(5-Chloro-2-hydroxy-phenyl)acetyl]amino]-N-cyclohexyl-pyridine-2-carboxamide] were 200% and 80 nM.
In the case of `CC(C)(C)NC(=O)c1cccc(NC(=O)Cc2cc(Cl)ccc2O)c1` [Example 2, N-tert-Butyl-3-[[2-(5-chloro-2-hydroxy-phenyl)acetyl]amino]benzamide], the “% Potentiation @ 3.33 μM Avg” value turned out to be 262% and the EC50 was 270 nM.
Taken in the same sequence, the figures for `CC(C)(C)NC(=O)c1cccc(NC(=O)Cc2cc(F)ccc2O)c1` [Example 2.1, N-tert-Butyl-3-[[2-(5-fluoro-2-hydroxy-phenyl)acetyl]amino]benzamide] were 216% and 490 nM.
For the compound `CC(C)(C)NC(=O)c1cccc(NC(=O)Cc2cccc(F)c2O)c1` [Example 2.2, N-tert-Butyl-3-[[2-(3-fluoro-2-hydroxy-phenyl)acetyl]amino]benzamide], the “% Potentiation @ 3.33 μM Avg” value is 158% and the concentration giving a half-maximal response (EC50) was 1610 nM.
Taken in the same sequence, the figures for `CC(C)(C)NC(=O)c1cccc(NC(=O)Cc2ccc(F)cc2O)c1` [Example 2.3, N-tert-Butyl-3-[[2-(4-fluoro-2-hydroxy-phenyl)acetyl]amino]benzamide] were 203% and 590 nM.
On to `CC(C)(C)NC(=O)c1cccc(NC(=O)Cc2c(O)cccc2O)c1` [Example 2.4, N-tert-Butyl-3-[[2-(2,6-dihydroxyphenyl)acetyl]amino]benzamide], for which the “% Potentiation @ 3.33 μM Avg” value is 53%.
With `CC(C)(C)NC(=O)c1cccc(NC(=O)CCc2ccccc2O)c1` [Example 2.5, N-tert-Butyl-3-[3-(2-hydroxyphenyl)propanamido]benzamide], the “% Potentiation @ 3.33 μM Avg” value was determined as 51% and the EC50 is 1340 nM.
Take `COc1cccc(O)c1CC(=O)Nc1cccc(C(=O)NC(C)(C)C)c1` [Example 2.6, N-tert-Butyl-3-[[2-(2-hydroxy-6-methoxy-phenyl)acetyl]amino] benzamide]: the “% Potentiation @ 3.33 μM Avg” value is 140% and the half-maximal effective concentration (EC50) was 2910 nM.
Taken in the same sequence, the figures for `CC(C(=O)Nc1cccc(C(=O)NC(C)(C)C)c1)c1ccccc1O` (stereo not shown) [Example 2.7, N-tert-Butyl-3-[2-(2-hydroxyphenyl)propanamido]benzamide] were 51% and 8190 nM.
Consider `COc1cccc(CC(=O)Nc2cccc(C(=O)NC(C)(C)C)c2)c1O` [Example 2.8, N-tert-Butyl-3-[[2-(2-hydroxy-3-methoxy-phenyl)acetyl]amino] benzamide], for which the “% Potentiation @ 3.33 μM Avg” value is on record as 74% and the EC50 is 4550 nM.
Taken in the same sequence, the figures for `CC(C)(C)NC(=O)c1cccc(NC(=O)Cc2cc(F)cc(F)c2O)c1` [Example 2.9, N-tert-Butyl-3-[[2-(3,5-difluoro-2-hydroxy-phenyl)acetyl]amino] benzamide] were 148% and 990 nM.
`CC(C)(C)NC(=O)c1cccc(NC(=O)Cc2cc(Br)ccc2O)c1` [Example 2.10, 3-[[2-(5-Bromo-2-hydroxy-phenyl)acetyl]amino]-N-tert-butyl-benzamide]: the “% Potentiation @ 3.33 μM Avg” value is listed as 133% and the EC50 was 460 nM.
Regarding `CC(C)(C)NC(=O)c1cccc(NC(=O)Cc2c(O)ccc(F)c2F)c1` [Example 2.11, N-tert-Butyl-3-[[2-(2,3-difluoro-6-hydroxy-phenyl)acetyl]amino] benzamide], the “% Potentiation @ 3.33 μM Avg” value is given as 126% and the EC50 was 430 nM.
As to `CC(C)(C)NC(=O)c1cccc(NC(=O)Cc2cc(F)c(F)cc2O)c1` [Example 2.12, N-tert-Butyl-3-[[2-(4,5-difluoro-2-hydroxy-phenyl)acetyl]amino] benzamide], the “% Potentiation @ 3.33 μM Avg” value was determined as 111% and the half-maximal effective concentration (EC50) was 310 nM.
`CCC(C)(C)NC(=O)c1cccc(NC(=O)Cc2ccc(F)cc2O)c1` [Example 2.13, N-(1,1-Dimethylpropyl)-3-[[2-(4-fluoro-2-hydroxy-phenyl)acetyl]amino] benzamide]: the “% Potentiation @ 3.33 μM Avg” value amounted to 126% and the concentration giving a half-maximal response (EC50) was 460 nM.
Take `COc1ccc(CC(=O)Nc2cccc(C(=O)NC(C)(C)C)c2)c(O)c1` [Example 2.14, N-tert-Butyl-3-[[2-(2-hydroxy-4-methoxy-phenyl)acetyl]amino]benzamide]: the “% Potentiation @ 3.33 μM Avg” value was determined as 100% and the 50% effective concentration (EC50) was 1780 nM.
Taken in the same sequence, the figures for `CC(C)(C)NC(=O)c1cccc(NC(=O)Cc2c(O)cccc2F)c1` [Example 2.15, N-tert-Butyl-3-[[2-(2-fluoro-6-hydroxy-phenyl)acetyl]amino]benzamide] were 163% and 490 nM.
As for `CC(C)(C)NC(=O)c1cccc(NC(=O)Cc2cccc(O)c2O)c1` [Example 2.16, N-tert-Butyl-3-[[2-(2,3-dihydroxyphenyl)acetyl]amino]benzamide], the “% Potentiation @ 3.33 μM Avg” value was 60% and the EC50 is 4270 nM.
Taken in the same sequence, the figures for `CC(C)(C)NC(=O)c1cccc(NC(=O)Cc2cc(C(F)(F)F)ccc2O)c1` [Example 2.17, N-tert-Butyl-3-[[2-[2-hydroxy-5-(trifluoromethyl)phenyl]acetyl]amino]benzamide] were 172% and 270 nM.
As for `COC(=O)c1ccc(O)c(CC(=O)Nc2cccc(C(=O)NC(C)(C)C)c2)c1` [Example 2.18, Methyl 3-[2-[3-(tert-butylcarbamoyl)anilino]-2-oxo-ethyl]-4-hydroxy-benzoate], the “% Potentiation @ 3.33 μM Avg” value was determined as 118% and the 50% effective concentration (EC50) was 1410 nM.
Regarding `CC(C)(C)NC(=O)c1cccc(NC(=O)Cc2ccc(C(F)(F)F)cc2O)c1` [Example 2.19, N-tert-Butyl-3-[[2-[2-hydroxy-4-(trifluoromethyl)phenyl]acetyl]amino]benzamide], the “% Potentiation @ 3.33 μM Avg” value was 249% and the concentration for a half-maximal effect (EC50) is 460 nM.
Taken in the same sequence, the figures for `CC(C)(C)NC(=O)c1cc(NC(=O)Cc2cc(Cl)ccc2O)ccn1` [Example 3, N-tert-Butyl-4-[[2-(5-chloro-2-hydroxy-phenyl)acetyl]amino]pyridine-2-carboxamide] were 287% and 110 nM.
